Test results taken from US20050070510A1, “Substituted tetracycline compounds as synergistic antifungal agents” (Paratek Pharmaceuticals, Inc., priority 2001, published 2005).

test system: COS-1 cells; test: In vitro mammalian cytotoxicity assay (Resazurin)

| SMILES | In Vitro Cytotoxicity |
| --- | --- |
| CC(=O)c1ccc(-c2cc(N(C)C)c3c(c2O)C(=O)C2=C(O)[C@]4(C#N)C(=O)C(C(N)=O)=C(O)[C@@H](N(C)C)[C@]4(N)C[C@]2(N)C3)cc1 [Compound HJ, 9-(4′-Acetylphenyl) Minocycline] | ** (toxicities less than 25 μg/mL are represented by **) |
| CN(C)[C@@H]1C(O)=C(C(N)=O)C(=O)[C@@]2(C#N)C(O)=C3C(=O)c4c(O)ccc(C#CCCCCC#Cc5ccc(O)c6c5C[C@@]5(N)C[C@@]7(N)[C@H](N(C)C)C(O)=C(C(N)=O)C(=O)[C@@]7(C#N)C(O)=C5C6=O)c4C[C@@]3(N)C[C@@]12N [Compound NB, 1,8-Di-7-Sancyclinyl-1,8-Heptyne] | * (toxicities greater than >25 μg/ml are represented by *) |
| COC(=O)c1cc(N(C)C)c2c(c1O)C(=O)C1=C(O)[C@]3(C#N)C(=O)C(C(N)=O)=C(O)[C@@H](N(C)C)[C@]3(N)C[C@]1(N)C2 [Compound TC, 9-Minocycline methyl ester] | * (toxicities greater than >25 μg/ml are represented by *) |
| CN(C)c1cc(-c2ccc(CN3CCN(CCO)CC3)o2)c(O)c2c1C[C@H]1C[C@H]3[C@H](N(C)C)C(O)=C(C(N)=O)C(=O)[C@@]3(O)C(O)=C1C2=O [Compound UC, 2-[4-(5-Minocyclin-9-yl-furan-2-ylmethyl)-piperazin-1-yl]-ethanol] | * (toxicities greater than >25 μg/ml are represented by *) |
| CN(C)[C@@H]1C(O)=C(C(=O)NC(C)(C)C)C(=O)[C@@]2(C#N)C(O)=C3C(=O)c4c(O)cccc4C(N)[C@@]3(N)[C@H](O)[C@@]12N (stereo partly drawn) [DA] | * (toxicities greater than >25 μg/ml are represented by *) |
| CC(=O)O[C@H]1[C@@]2(N)C(=C(O)[C@]3(C#N)C(=O)C(C(N)=O)=C(O)[C@@H](N(C)C)[C@]13N)C(=O)c1c(ccc(N=[N+]=N)c1O)[C@@H]2N [DB] | ** (toxicities less than 25 μg/mL are represented by **) |
| CN(C)[C@@H]1C(O)=C(C(N)=O)C(=O)[C@@]2(C#N)C(O)=C3C(=O)c4c(ccc(NC=O)c4O)C(N)[C@@]3(N)[C@H](O)[C@@]12N (stereo partly drawn) [DC] | ** (toxicities less than 25 μg/mL are represented by **) |
| CN(C)[C@@H]1C(O)=C(C(N)=O)C(=O)[C@@]2(C#N)C(O)=C3C(=O)c4c(ccc(NC(=O)OCCBr)c4O)[C@H](N)[C@@]3(N)[C@H](O)[C@@]12N [DD] | ** (toxicities less than 25 μg/mL are represented by **) |
| CC(=O)c1ccc(/C=C2\c3cccc(O)c3C(=O)C3=C(O)[C@]4(C#N)C(=O)C(C(N)=O)=C(O)[C@@H](N(C)C)[C@]4(N)[C@@H](O)[C@@]32N)cc1 [DE] | ** (toxicities less than 25 μg/mL are represented by **) |
| CCOc1ccc(/C=C2\c3cccc(O)c3C(=O)C3=C(O)[C@]4(C#N)C(=O)C(C(N)=O)=C(O)[C@@H](N(C)C)[C@]4(N)[C@@H](O)[C@@]32N)cc1 [DF] | ** (toxicities less than 25 μg/mL are represented by **) |
| CN(C)c1cc(NC(=O)OCC(C)(C)C)c(O)c2c1C[C@@]1(N)C[C@@]3(N)[C@H](N(C)C)C(O)=C(C(N)=O)C(=O)[C@@]3(C#N)C(O)=C1C2=O [DG] | ** (toxicities less than 25 μg/mL are represented by **) |
| CN(C)[C@@H]1C(O)=C(C(N)=O)C(=O)[C@@]2(C#N)C(O)=C3C(=O)c4c(O)cccc4[C@H](CSCc4ccccc4)[C@@]3(N)[C@H](O)[C@@]12N [DH] | ** (toxicities less than 25 μg/mL are represented by **) |
| C#Cc1cc(N(C)C)c2c(c1O)C(=O)C1=C(O)[C@]3(C#N)C(=O)C(C(N)=O)=C(O)[C@@H](N(C)C)[C@]3(N)C[C@]1(N)C2 [DI] | ** (toxicities less than 25 μg/mL are represented by **) |
| CCOC(=O)C(C)(/N=N/c1ccc2c(c1O)C(=O)C1=C(O)[C@]3(C#N)C(=O)C(C(N)=O)=C(O)[C@@H](N(C)C)[C@]3(N)[C@@H](O)[C@]1(N)[C@H]2N)C(=O)OCC [DK] | ** (toxicities less than 25 μg/mL are represented by **) |
| CCCCOc1ccc(O)c2c1C[C@@]1(N)C[C@@]3(N)[C@H](N(C)C)C(O)=C(C(N)=O)C(=O)[C@@]3(C#N)C(O)=C1C2=O [DL] | ** (toxicities less than 25 μg/mL are represented by **) |
| CN(C)[C@@H]1C(O)=C(C(N)=O)C(=O)[C@@]2(C#N)C(O)=C3C(=O)c4c(O)ccc(-c5ccc(Cl)cc5)c4C[C@@]3(N)C[C@@]12N [DM] | ** (toxicities less than 25 μg/mL are represented by **) |
| CN(C)c1cc(NC(=O)OC(C)(C)C)c(O)c2c1C[C@@]1(N)C[C@@]3(N)[C@H](N(C)C)C(O)=C(C(N)=O)C(=O)[C@@]3(C#N)C(O)=C1C2=O [DN] | ** (toxicities less than 25 μg/mL are represented by **) |
| CN(C)c1cc(C2C=CCC2)c(O)c2c1C[C@@]1(N)C[C@@]3(N)[C@H](N(C)C)C(O)=C(C(N)=O)C(=O)[C@@]3(C#N)C(O)=C1C2=O (stereo partly drawn) [DO] | ** (toxicities less than 25 μg/mL are represented by **) |
| CN(C)[C@@H]1C(O)=C(C(N)=O)C(=O)[C@@]2(C#N)C(O)=C3C(=O)c4c(O)cccc4/C(=C\c4ccc5ccccc5c4)[C@@]3(N)[C@H](O)[C@@]12N [DQ] | ** (toxicities less than 25 μg/mL are represented by **) |
| CN(C)[C@@H]1C(O)=C(C(N)=O)C(=O)[C@@]2(C#N)C(O)=C3C(=O)c4c(O)cccc4/C(=C\c4cc(F)cc(F)c4)[C@@]3(N)[C@H](O)[C@@]12N [DR] | * (toxicities greater than >25 μg/ml are represented by *) |

| SMILES | In Vitro Cytotoxicity |
| --- | --- |
| CN(C)[C@@H]1C(O)=C(C(N)=O)C(=O)[C@@]2(C#N)C(O)=C3C(=O)c4c(O)cccc4/C(=C\c4ccc(F)cc4)[C@@]3(N)[C@H](O)[C@@]12N [DS] | ** (toxicities less than 25 μg/mL are represented by **) |
| CN(C)[C@@H]1C(O)=C(C(N)=O)C(=O)[C@@]2(C#N)C(O)=C3C(=O)c4c(ccc(Nc5ccc(-c6ccccc6)s5)c4O)[C@H](N)[C@@]3(N)[C@H](O)[C@@]12N [DT] | ** (toxicities less than 25 μg/mL are represented by **) |
| CCN(CC)c1ccc(-c2csc(Nc3ccc4c(c3O)C(=O)C3=C(O)[C@]5(C#N)C(=O)C(C(N)=O)=C(O)[C@@H](N(C)C)[C@]5(N)[C@@H](O)[C@]3(N)[C@H]4O)n2)cc1 [DU] | ** (toxicities less than 25 μg/mL are represented by **) |
| CN(C)[C@@H]1C(O)=C(C(N)=O)C(=O)[C@@]2(C#N)C(O)=C3C(=O)c4c(ccc(Nc5nc(-c6cccc([N+](=O)O)c6)cs5)c4O)[C@H](O)[C@@]3(N)[C@H](O)[C@@]12N [DV] | ** (toxicities less than 25 μg/mL are represented by **) |
| Cc1sc(Nc2ccc3c(c2O)C(=O)C2=C(O)[C@]4(C#N)C(=O)C(C(N)=O)=C(O)[C@@H](N(C)C)[C@]4(N)[C@@H](O)[C@]2(N)[C@H]3O)nc1-c1ccccc1 [DW] | ** (toxicities less than 25 μg/mL are represented by **) |
| CN(C)[C@@H]1C(O)=C(C(N)=O)C(=O)[C@@]2(C#N)C(O)=C3C(=O)c4c(ccc(Nc5nc(C6C7CC8CC(C7)CC6C8)cs5)c4O)[C@H](O)[C@@]3(N)[C@H](O)[C@@]12N (stereo partly drawn) [DX] | ** (toxicities less than 25 μg/mL are represented by **) |
| CN(C)[C@@H]1C(O)=C(C(N)=O)C(=O)[C@@]2(C#N)C(O)=C3C(=O)c4c(ccc(-c5ccco5)c4O)[C@H](O)[C@@]3(N)[C@H](O)[C@@]12N [DY] | ** (toxicities less than 25 μg/mL are represented by **) |
| CN(C)c1cc(-c2ccco2)c(O)c2c1C[C@@]1(N)C[C@@]3(N)[C@H](N(C)C)C(O)=C(C(N)=O)C(=O)[C@@]3(C#N)C(O)=C1C2=O [DZ] | ** (toxicities less than 25 μg/mL are represented by **) |
| COc1ccc(-c2cc(N(C)C)c3c(c2O)C(=O)C2=C(O)[C@]4(C#N)C(=O)C(C(N)=O)=C(O)[C@@H](N(C)C)[C@]4(N)C[C@]2(N)C3)cc1 [EA] | ** (toxicities less than 25 μg/mL are represented by **) |
| CN(C)[C@@H]1C(O)=C(C(N)=O)C(=O)[C@@]2(C#N)C(O)=C3C(=O)c4c(ccc(Nc5nc(-c6ccc(F)cc6)cs5)c4O)C[C@@]3(N)C[C@@]12N [EB] | * (toxicities greater than >25 μg/ml are represented by *) |
| CN(C)[C@@H]1C(O)=C(C(N)=O)C(=O)[C@@]2(C#N)C(O)=C3C(=O)c4c(O)ccc(OC5=CC(c6cccc([N+](=O)O)c6)=CC5)c4C[C@@]3(N)C[C@@]12N [EC] | * (toxicities greater than >25 μg/ml are represented by *) |
| CN(C)[C@@H]1C(O)=C(C(N)=O)C(=O)[C@@]2(C#N)C(O)=C3C(=O)c4c(ccc(Nc5nc(-c6cccc([N+](=O)O)c6)cs5)c4O)C[C@@]3(N)C[C@@]12N [ED] | ** (toxicities less than 25 μg/mL are represented by **) |
| COC(=O)c1ccc(-c2ccc(O)c3c2C[C@@]2(N)C[C@@]4(N)[C@H](N(C)C)C(O)=C(C(N)=O)C(=O)[C@@]4(C#N)C(O)=C2C3=O)cc1 [EF] | ** (toxicities less than 25 μg/mL are represented by **) |
| CN(C)c1cc(-c2cccc([N+](=O)O)c2)c(O)c2c1C[C@@]1(N)C[C@@]3(N)[C@H](N(C)C)C(O)=C(C(N)=O)C(=O)[C@@]3(C#N)C(O)=C1C2=O [EG] | ** (toxicities less than 25 μg/mL are represented by **) |
| CN(C)c1cc(-c2ccc3c(c2)OCO3)c(O)c2c1C[C@@]1(N)C[C@@]3(N)[C@H](N(C)C)C(O)=C(C(N)=O)C(=O)[C@@]3(C#N)C(O)=C1C2=O [EH] | ** (toxicities less than 25 μg/mL are represented by **) |
| CN(C)c1ccc(-c2ccc(O)c3c2C[C@@]2(N)C[C@@]4(N)[C@H](N(C)C)C(O)=C(C(N)=O)C(=O)[C@@]4(C#N)C(O)=C2C3=O)cc1 [EM] | ** (toxicities less than 25 μg/mL are represented by **) |
| CN(C)[C@@H]1C(O)=C(C(N)=O)C(=O)[C@@]2(C#N)C(O)=C3C(=O)c4c(O)ccc(-c5ccc6c(c5)OCO6)c4C[C@@]3(N)C[C@@]12N [EO] | ** (toxicities less than 25 μg/mL are represented by **) |
| CN(C)[C@@H]1C(O)=C(C(N)=O)C(=O)[C@@]2(C#N)C(O)=C3C(=O)c4c(O)ccc(-c5ccoc5)c4C[C@@]3(N)C[C@@]12N [EP] | ** (toxicities less than 25 μg/mL are represented by **) |
| CN(C)c1cc(-c2ccc(Cl)cc2)c(O)c2c1C[C@@]1(N)C[C@@]3(N)[C@H](N(C)C)C(O)=C(C(N)=O)C(=O)[C@@]3(C#N)C(O)=C1C2=O [EQ] | ** (toxicities less than 25 μg/mL are represented by **) |
